Active and inactive are the calls of the source. How the calls were made is not given here. Where a SMILES comes first, the peptide text is derived from it. [ ]: non-standard residue; d: D form. pGlu = O=C1CC[C@@H](C(=O)O)N1; Thz = O=C(O)[C@@H]1CSCN1
System: CCRIS mutagenicity, Ames/micronucleus/aberration tests
Assay: CCRIS mutagenicity studies
[1] = Test System: AMES SALMONELLA TYPHIMURIUM, Strain/Indicator: TA98, Metabolic Activation: RAT, LIVER, S-9, AROCLOR 1254, Method: STANDARD PLATE

Nc1ccc2nc3ccccc3c(N)c2c1
mutagenic call (Test System: AMES SALMONELLA TYPHIMURIUM, Strain/Indicator: TA1535, Metabolic Activation: NONE, Method: PREINCUBATION): inactive; negative
mutagenic call (Test System: AMES SALMONELLA TYPHIMURIUM, Strain/Indicator: TA1535, Metabolic Activation: RAT, LIVER, S-9, TETRACHLOROBIPHENYL, Method: PREINCUBATION): inactive; negative
mutagenic call (Test System: AMES SALMONELLA TYPHIMURIUM, Strain/Indicator: TA1537, Metabolic Activation: NONE, Method: PREINCUBATION): active; positive
mutagenic call (Test System: AMES SALMONELLA TYPHIMURIUM, Strain/Indicator: TA1537, Metabolic Activation: RAT, LIVER, S-9, TETRACHLOROBIPHENYL, Method: PREINCUBATION): active; positive
mutagenic call (Test System: AMES SALMONELLA TYPHIMURIUM, Strain/Indicator: TA1538, Metabolic Activation: NONE, Method: PREINCUBATION): inactive; negative
mutagenic call (Test System: AMES SALMONELLA TYPHIMURIUM, Strain/Indicator: TA1538, Metabolic Activation: RAT, LIVER, S-9, TETRACHLOROBIPHENYL, Method: PREINCUBATION): active; positive
mutagenic call (Test System: AMES SALMONELLA TYPHIMURIUM, Strain/Indicator: TA1977, Metabolic Activation: NONE, Method: PREINCUBATION): active; positive
mutagenic call (Test System: AMES SALMONELLA TYPHIMURIUM, Strain/Indicator: TA1977, Metabolic Activation: RAT, LIVER, S-9, TETRACHLOROBIPHENYL, Method: PREINCUBATION): active; positive
mutagenic call (Test System: AMES SALMONELLA TYPHIMURIUM, Strain/Indicator: TA1978, Metabolic Activation: RAT, LIVER, S-9, TETRACHLOROBIPHENYL, Method: PREINCUBATION): inactive; negative

O=[N+]([O-])c1ccc(-c2csc(Nc3ccccc3)n2)o1
mutagenic call (Test System: E. COLI WP2, Strain/Indicator: WP2, Metabolic Activation: NONE, Method: SPOT): active; positive

O=C1CC[C@@H](C(=O)N2CSC[C@H]2C(=O)O)N1 ([pGlu]-[Thz]-OH)
mutagenic call (Test System: AMES SALMONELLA TYPHIMURIUM, Strain/Indicator: TA98, Metabolic Activation: NONE, Method: STANDARD PLATE): inactive; negative
mutagenic call [1]: inactive; negative
mutagenic call (Test System: AMES SALMONELLA TYPHIMURIUM, Strain/Indicator: TA100, Metabolic Activation: NONE, Method: STANDARD PLATE): inactive; negative
mutagenic call (Test System: AMES SALMONELLA TYPHIMURIUM, Strain/Indicator: TA100, Metabolic Activation: RAT, LIVER, S-9, AROCLOR 1254, Method: STANDARD PLATE): inactive; negative
mutagenic call (Test System: AMES SALMONELLA TYPHIMURIUM, Strain/Indicator: TA1535, Metabolic Activation: NONE, Method: STANDARD PLATE): inactive; negative
mutagenic call (Test System: AMES SALMONELLA TYPHIMURIUM, Strain/Indicator: TA1535, Metabolic Activation: RAT, LIVER, S-9, AROCLOR 1254, Method: STANDARD PLATE): inactive; negative
mutagenic call (Test System: AMES SALMONELLA TYPHIMURIUM, Strain/Indicator: TA1537, Metabolic Activation: NONE, Method: STANDARD PLATE): inactive; negative
mutagenic call (Test System: AMES SALMONELLA TYPHIMURIUM, Strain/Indicator: TA1537, Metabolic Activation: RAT, LIVER, S-9, AROCLOR 1254, Method: STANDARD PLATE): inactive; negative
mutagenic call (Test System: AMES SALMONELLA TYPHIMURIUM, Strain/Indicator: TA1538, Metabolic Activation: NONE, Method: STANDARD PLATE): inactive; negative
mutagenic call (Test System: AMES SALMONELLA TYPHIMURIUM, Strain/Indicator: TA1538, Metabolic Activation: RAT, LIVER, S-9, AROCLOR 1254, Method: STANDARD PLATE): inactive; negative
mutagenic call (Test System: MOUSE LYMPHOMA, Strain/Indicator: L5178Y (TK+/TK-), Metabolic Activation: NONE, Method: SUSPENSION/PLATE): inactive; negative
mutagenic call (Test System: MOUSE LYMPHOMA, Strain/Indicator: L5178Y (TK+/TK-), Metabolic Activation: RAT, LIVER, S-9, AROCLOR 1254, Method: SUSPENSION/PLATE): inactive; negative
mutagenic call (Test System: UDS HELA CELLS, Strain/Indicator: THY INCORP, Metabolic Activation: NONE, Method: AUTORADIOGRAPHY): inactive; negative
mutagenic call (Test System: UDS HELA CELLS, Strain/Indicator: THY INCORP, Metabolic Activation: RAT, LIVER, S-9, AROCLOR 1254, Method: AUTORADIOGRAPHY): inactive; negative

CC(=O)Nc1ccc2c(c1OC(=O)c1ccccc1)Cc1ccccc1-2
mutagenic call [1]: inactive; negative

C=C(C)C(C)Cl (stereo unspecified)
mutagenic call (Test System: AMES SALMONELLA TYPHIMURIUM, Strain/Indicator: TA100, Metabolic Activation: NONE, Method: LIQUID SUSPENSION): active; positive
